Test results as given in the NIST ThermoML archive (doi:10.1016/j.fluid.2018.01.017).
± gives the expanded uncertainty stated by the source.

Tests used:
[1] = xn = mol fraction of the nth substance listed; settings: 298.15 K, 86.6 kPa, Liquid; for speed of sound: Anton Parr, DSA 5000 densimeter and speed of sound analyzer; for mass density: Vibrating tube method
[2] = refractive index (Na D-line) (dimensionless); xn = mol fraction of the nth substance listed; settings: 298.15 K, 86.6 kPa, Liquid, Standard Abbe refractometry

O=C(O)C(=O)O [ethanedioic acid] + C[N+](C)(C)CCO.[Cl-]
speed of sound ([1]; x2 = 0.5): 1925 ± 1.7 m/s
mass density ([1]; x2 = 0.5): 1210.93 ± 0.5 kg/m3
refractive index ([2]; x2 = 0.5): 1.4809 ± 0.0005

O=C(O)CC(=O)O [propanedioic acid] + C[N+](C)(C)CCO.[Cl-]
speed of sound ([1]; x2 = 0.5): 1962.7 ± 1.7 m/s
mass density ([1]; x2 = 0.5): 1251.47 ± 0.54 kg/m3
refractive index ([2]; x2 = 0.5): 1.4887 ± 0.0005

NC(N)=O [urea] + C[N+](C)(C)CCO.[Cl-]
speed of sound ([1]; x2 = 0.333): 2062.3 ± 2.2 m/s
mass density ([1]; x2 = 0.333): 1193.93 ± 0.94 kg/m3
refractive index ([2]; x2 = 0.333): 1.5041 ± 0.0006
